According to patent EP2945947B1, “INHIBITING THE TRANSIENT RECEPTOR POTENTIAL A1 ION CHANNEL” (Merck Sharp & Dohme Corp., priority 2013, dated 2014):
≈ marks a conversion by molar mass, not a printed value. Like-named read-outs stand apart in the source and are kept apart here.

Assays:
human TRPA1 = human TRPA1 (Homo sapiens, UniProt O75762); assay: Inhibition of the TRPA1 ion channel, whole cell patch configuration (Example 1); format: cell-based; settings: current activation 10 µM AITC, read-out: Human TRPA1 IC50 Inward Current
Procedure: Compounds of Formula (Ia) inhibit the TRPA1 channel, as measured using the method of Example 1. […] Data for TRPA1 inhibition and for TRPA1 selectivity was obtained by this method for the indicated compounds of Formula (Ia), with the relevant data included in Tables 1a - f below. All currents were recorded in whole-cell configuration using EPC-9 and EPC-10 amplifiers and Patchmaster software (HEKA). […] The standard pipette solution consisted of 140mM CsAsp, 10 mM EGTA, 10 mM HEPES, 2.27 mM MgCl2, 1.91 mM CaCl2, 4 mM MgATP, and 0.1-0.3 mM Na2GTP, with pH adjusted to 7.2 with CsOH. In addition, a solution containing 145 mM CsCl, 10 mM HEPES, 10 mM EGTA and 1 mM MgCl2 (pH 7.2 adjusted with CsOH) can be used. The standard bath solution contained 150 mM NaCl, 10 mM HEPES, 10 mM glucose, 4.5 mM KCl, 1 mM EGTA, 3 mM MgCl2, with pH adjusted to 7.4 with NaOH. In some instances, 2 mM CaCl2 was added in place of EGTA and the concentration of MgCl2 was reduced to 1 mM.
Data were collected either by continuous recordings at -60 mV or by applying voltage ramps from a holding potential of 0 mV every 4 s. Continuous recordings were collected at 400 Hz and digitally filtered off-line at 10 Hz for presentation. Voltage ramps were applied from - 100 mV to 100 mV over the course of 400 ms, and data were collected at 10 kHz and filtered at 2.9 kHz. Inward and outward currents were analyzed from the ramps at -80 and 80 mV, respectively. Liquid junction potential correction was not used.
Solutions were switched using a gravity-fed continuous focal perfusion system. To achieve rapid temperature changes, two temperature control, and perfusion systems were employed simultaneously. For temperatures ≥ 22°C, a Warner Instruments bipolar temperature controller (TC-344B) and inline heater (SHM-8) were used. […] Temperatures were confirmed using a thermistor (Warner Instruments, TA-29), with temperatures at the recorded cell estimated to be within +/- 2°C of those reported.
The antagonist effects of compounds of Formula (Ia) against human TRPA1 ("hTRPA1") and for some compounds rat TRPA1 ("rTRPA1") in a whole cell patch configuration were evaluated using the in vitro assay described above. The current activation tested was 10 µM AITC, and the tested concentrations ranged from 5 µM and 500 nM. Table 1a (Comparative Compounds)

rats = assay: Rodent formalin pain model (Example 3); format: in vivo; settings: rat; for Minimal Efficacious Dose of Compound in Formalin Model: IV, statistically significant difference vs vehicle at 0 - 2 min (p≤0.05); for Duration of Pain Behavior: first two minutes after formalin, vehicle 88.6
Procedure: Compounds of Formula (Ia) are active in rodent models of pain induced by direct activation of the TRPA1 channel with intraplantar injection of the TRPA1 agonist formalin. Compounds of Formula (Ia) were tested in the formalin-induced pain test reported by Abbott et. al. Pain. 1995 Jan;60(1):91-102. Dubuisson et al. describe a method for assessing pain and analgesia in rats. Briefly, dilute formalin (50 µL of 3 % formalin) is injected into the plantar surface of the hind paw. […] The individual responsible for counting the pain behaviors in a particular study is blinded to the treatment groups.
Table 2 is a data table showing the results from testing compounds of Formula (Ia) in the rodent formalin-induced pain model described in […]. Rats were treated with the compounds of Formula (Ia) at various doses (0.1, 0.3, 1, 1.2, 3, 4, 10, or 30 mg/Kg IV) or with a control composition containing the vehicle (i.e., without a compound of Formula (Ia)). Pain behaviors (flinch, lift, lick, bite) were monitored following intraplantar formalin injection. Referring to Table 2, the minimum effective dose was derived from dose resulting in statistically significant difference in behavior at 0 - 2 min time period as compared with vehicle (p≤0.05).

[1] = Aqueous solubility in buffered solutions, HPLC (Example 2); format: physicochemical; settings: kinetic from dmso stock, ambient temperature
[2] = sodium bicarbonate buffer in water for injection/5% dextrose, pH 9.0, 50 mM sodium bicarbonate, read-out: pH 9.0 aqueous solubility
[3] = sodium phosphate buffer in water for injection/5% dextrose, pH 7.4, 75 mM sodium phosphate, read-out: pH 7.4 aqueous solubility

Sequence of human TRPA1 (O75762 whole entry): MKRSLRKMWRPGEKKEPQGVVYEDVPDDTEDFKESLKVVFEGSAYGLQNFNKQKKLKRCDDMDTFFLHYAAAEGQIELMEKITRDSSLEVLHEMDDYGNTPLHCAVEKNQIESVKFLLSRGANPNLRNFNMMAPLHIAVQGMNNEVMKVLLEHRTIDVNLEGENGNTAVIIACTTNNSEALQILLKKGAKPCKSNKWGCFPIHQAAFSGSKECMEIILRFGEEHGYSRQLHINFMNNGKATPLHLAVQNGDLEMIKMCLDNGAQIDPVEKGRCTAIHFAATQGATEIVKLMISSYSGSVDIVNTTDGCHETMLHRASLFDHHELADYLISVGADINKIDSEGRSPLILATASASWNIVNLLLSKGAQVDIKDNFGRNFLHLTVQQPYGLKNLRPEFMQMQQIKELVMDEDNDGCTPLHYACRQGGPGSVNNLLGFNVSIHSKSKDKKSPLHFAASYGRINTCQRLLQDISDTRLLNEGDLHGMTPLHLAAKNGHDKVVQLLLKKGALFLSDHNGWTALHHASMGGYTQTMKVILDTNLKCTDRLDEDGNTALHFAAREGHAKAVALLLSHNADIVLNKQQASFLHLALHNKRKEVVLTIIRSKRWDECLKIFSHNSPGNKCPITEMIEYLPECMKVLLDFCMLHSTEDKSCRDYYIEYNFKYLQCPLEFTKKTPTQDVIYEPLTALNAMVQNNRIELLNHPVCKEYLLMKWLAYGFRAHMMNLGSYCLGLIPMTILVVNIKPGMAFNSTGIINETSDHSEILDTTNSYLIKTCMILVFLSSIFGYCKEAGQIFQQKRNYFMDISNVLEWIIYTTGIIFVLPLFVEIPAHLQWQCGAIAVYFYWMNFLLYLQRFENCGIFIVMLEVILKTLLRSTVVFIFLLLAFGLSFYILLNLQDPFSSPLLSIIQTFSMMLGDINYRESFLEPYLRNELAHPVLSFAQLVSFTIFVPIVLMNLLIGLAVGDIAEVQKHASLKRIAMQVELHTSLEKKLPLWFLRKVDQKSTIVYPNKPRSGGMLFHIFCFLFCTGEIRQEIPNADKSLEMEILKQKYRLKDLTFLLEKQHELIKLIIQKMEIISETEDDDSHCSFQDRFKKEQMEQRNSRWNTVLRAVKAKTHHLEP

| SMILES | IC50 (human TRPA1) [nM] | further results |
| --- | --- | --- |
| C[C@@H](C(=O)Nc1cncc(-c2cnc(N3CCCC3(C)C)nc2)n1)n1cnc2c1c(=O)n(C)c(=O)n2C [Compound 2-F, (S)-2-(1,3-dimethyl-2,6-dioxo-1,2,3,6-tetrahydro-7H-purin-7-yl)-N-(6-(2-(2,2-dimethylpyrrolidin-1-yl)pyrimidin-5-yl)pyrazin-2-yl)propanamide] | < 25 | Minimal Efficacious Dose of Compound in Formalin Model (rats): 1 mg/kg; Duration of Pain Behavior (rats; dose 0.3 mg/kg IV): 67.5 s; Duration of Pain Behavior (rats; dose 1 mg/kg IV): 7 s; Duration of Pain Behavior (rats; dose 3 mg/kg IV): 5 s; solubility kinetic at 24 h [1, 2]: 6 µg/mL (≈ 11.9 µM); solubility kinetic at 24 h [1, 3]: 6 µg/mL (≈ 11.9 µM) |
| C[C@H]1CCCN1c1ncc(-c2cncc(NC(=O)[C@H](C)n3cnc4c3c(=O)n(C)c(=O)n4C)n2)cn1 [Compound 3-K, (S)-2-(1,3-dimethyl-2,6-dioxo-1,2,3,6-tetrahydro-7H-purin-7-yl)-N-(6-(2-((S)-2-methylpyrrolidin-1-yl)pyrimidin-5-yl)pyrazin-2-yl)propanamide] | 25 to 75 | Minimal Efficacious Dose of Compound in Formalin Model (rats): <3 mg/kg; Duration of Pain Behavior (rats; dose 3 mg/kg IV): 13.5 s; Duration of Pain Behavior (rats; dose 10 mg/kg IV): 2.6 s; Duration of Pain Behavior (rats; dose 30 mg/kg IV): 3.4 s; solubility kinetic at 24 h [1, 2]: 48 µg/mL (≈ 97.9 µM); solubility kinetic at 24 h [1, 3]: 38 µg/mL (≈ 77.5 µM) |
| C[C@H](C(=O)Nc1cncc(-c2cnc(N3CCC[C@@H]3C)nc2)n1)n1cnc2c1c(=O)n(C)c(=O)n2C [Compound 3-L] | > 100 |  |
| C[C@@H](C(=O)Nc1cccc(-c2cnc(N3CCC[C@H]3C(F)(F)F)nc2)n1)n1cnc2c1c(=O)n(C)c(=O)n2C [Compound 1-B, (S)-2-(1,3-Dimethyl-2,6-dioxo-1,2,3,6-tetrahydro-7H-purin-7-yl)-N-(6-(2-((S)-2-(trifluoromethyl)pyrrolidin-1-yl)pyrimidin-5-yl)pyridin-2-yl)propanamide] | < 25 | Minimal Efficacious Dose of Compound in Formalin Model (rats): <3 mg/kg; Duration of Pain Behavior (rats; dose 3 mg/kg IV): 6.1 s; Duration of Pain Behavior (rats; dose 10 mg/kg IV): 0.3 s; solubility kinetic at 24 h [1, 2]: 49 µg/mL (≈ 90.2 µM); solubility kinetic at 24 h [1, 3]: 44 µg/mL (≈ 81 µM) |
| [2H]C([2H])([2H])n1c(=O)n(C)c(=O)c2c1ncn2[C@@H](C)C(=O)Nc1cncc(-c2cnc(N3CCCC3(C)C)nc2)n1 [Compound 2-H] | < 25 |  |
| C[C@H]1CCCN1c1cccc(NC(=O)[C@H](C)N2C=NC3C2C(=O)N(C)C(=O)N3C)n1 (stereo partly shown) [Comparator 6, reference compound] | > 100 |  |
| C[C@H](C(=O)Nc1cncc(-c2cnc(N3CCC[C@H]3C(F)(F)F)nc2)n1)n1cnc2c1c(=O)n(C)c(=O)n2C [Compound 5-V] | > 100 |  |
| C[C@H](C(=O)Nc1cccc(-c2cnc(N3CCC[C@H]3C(F)(F)F)nc2)n1)n1cnc2c1c(=O)n(C)c(=O)n2C [Compound 1-D] | > 100 |  |
| C[C@H](C(=O)Nc1cncc(-c2cnc(N3CCCC3(C)C)nc2)n1)n1cnc2c1c(=O)n(C)c(=O)n2C [Compound 2-G] | > 100 |  |
| CC(C(=O)Nc1cncc(-c2cnc(N3CCC[C@H]3C(F)(F)F)nc2)n1)n1cnc2c1c(=O)n(C)c(=O)n2C (stereo partly shown) [Compound 5-U] | < 25 |  |
| [2H]C([2H])([2H])n1c(=O)n(C)c(=O)c2c1ncn2[C@@H](C)C(=O)Nc1cncc(-c2cnc(N3CCC[C@@H]3C)nc2)n1 [Compound 3-M] | < 25 |  |
| CC(C)c1ccc(NC(=O)C(C)n2cnc3c2c(=O)n(C)c(=O)n3C)cc1 (stereo not shown) [Comparator 3, reference compound] | > 100 |  |
| C[C@H]1CCCN1c1ncc(-c2cccc(NC(=O)[C@H](C)n3cnc4c3c(=O)n(C)c(=O)n4C)n2)cn1 [Compound 4-P] | 25 to 75 |  |
| C[C@H](C(=O)Nc1cccc(-c2cnc(N3CCC[C@@H]3C)nc2)n1)n1cnc2c1c(=O)n(C)c(=O)n2C [Compound 4-R] | > 100 |  |
| C[C@H]1CCCN1c1cncc(NC(=O)[C@H](C)N2C=NC3C2C(=O)N(C)C(=O)N3C)n1 (stereo partly shown) [Comparator 5, reference compound] | > 100 |  |
| [2H]C([2H])([2H])n1c(=O)n(C)c(=O)c2c1ncn2[C@H](C)C(=O)Nc1cncc(-c2cnc(N3CCCC3(C)C)nc2)n1 [Compound 2-I] | > 100 |  |
| CC(C(=O)Nc1cccc(-c2cnc(N3CCC[C@H]3C(F)(F)F)nc2)n1)n1cnc2c1c(=O)n(C)c(=O)n2C (stereo partly shown) [Compound 1-C] | < 25 |  |
| C[C@H]1CCCN1c1ncc(-c2cncc(NC(=O)[C@H](C)n3cnc4c3c(=O)n(C)c(=O)n4C)n2)cn1 [Compound 3-N, (S)-2-(1,3-dimethyl-2,6-dioxo-1,2,3,6-tetrahydro-7H-purin-7-yl)-N-(6-(2-((S)-2-methylpyrrolidin-1-yl)pyrimidin-5-yl)pyrazin-2-yl)propanamide] | > 100 |  |
| C[C@H]1CCCN1c1ccc(-c2csc(NC(=O)C(C)(C)n3cnc4c3c(=O)n(C)c(=O)n4C)n2)cc1F [Comparator 4, reference compound] | > 100 |  |
| CC(C(=O)Nc1cccc(-c2cnc(N3CCC[C@@H]3C)nc2)n1)n1cnc2c1c(=O)n(C)c(=O)n2C (stereo partly shown) [Compound 4-Q] | 25 to 75 |  |
